Measurements from patent US11752120B2, “Use of succinic acid in increasing sensitivity of bacteria to antibiotics” (SUN YAT-SEN UNIVERSITY, priority 2018, dated 2023).
Like-named read-outs stand apart in the source and are kept apart here.

What was measured:
[1] = test system: clinical Escherichia coli YT16 and YT28; settings: 6 hours (FIG. 10)
Description: A concentration of the treated bacteria was adjusted to 106 CFU/mL, 1 mL of the treated bacteria was taken and transferred into a 1.5 mL EP tube, 10 μL of 3 mM DiOC2 (3,3′-diethyloxa-carbocyanine iodide) was added, and oscillation and incubation were performed for 30 minutes after mixing sufficiently. The bacteria were transferred to a flow cytometry analysis tube before use on the machine, a FACSCalibur flow cytometer (Becton Dickinson, San Jose, Calif., USA) was used for detection, and parameter settings were performed according to the instrument operating procedures. The dye DiOC2 (3) has a green fluorescence excitation wavelength of 488 nm, an emission wavelength of 530 nm, a red fluorescence excitation wavelength of 488 nm, and an emission wavelength of 610 nm. The ratio of the red light intensity to the green light intensity indicates the intensity of the membrane potential, and calculation formula of the proton motive force (PMF) value is LOG (10^3/2*Y mean/X mean). Y mean and X mean represent red light intensity and green light intensity, respectively. Determination was performed according the instructions of the BacLight bacterial membrane potential kit (Invitrogen) kit.

[2] = test system: clinical Escherichia coli YT16 and YT28; experiment: Viable bacteria count / survival rate after antibiotic with or without succinic acid in M9 medium; format: cell-based
Description: A single colony of clinical bacteria was picked from a solid LB plate and was inoculated in 5 mL LB liquid medium for culture at 37° C. and 200 rpm for 16 hours, and then was inoculated in 100 mL LB liquid medium at a ratio of 1:100 (v/v) and was cultured at 37° C. until OD600 value was 1.0. 20 mL of bacterial solution was collected and centrifuged at 8000 rpm for 5 minutes, the supernatant was cleared and bacterial cells were washed with an equal volume of 0.85% normal saline, and finally the bacterial cells were suspended with 1×M9 basic medium (containing 10 mM acetate), the OD value of the bacterial solution was adjusted to 0.5, and then 5 mL of the bacterial solution was aliquoted in a test tube for the following experimental studies.
The survival rates of the clinical bacteria in medium with adding succinic acid and without adding succinic acid at the same antibiotic concentration were compared.
The formula is the number of viable bacteria when different concentrations of succinic acid were added/the number of viable bacteria without adding succinic acid×100%.
In order to study whether clinical Escherichia coli has effect on penicillin antibiotics after adding succinic acid, two clinical Escherichia coli samples of YT16 and YT28 were prepared according to step 2 in Embodiment 1, 20 mM succinic acid and 3 kinds of penicillin were added respectively, […], the number of viable bacteria was counted, and the survival rate was calculated. […]

[3] = test system: clinical Escherichia coli biofilm; settings: mice
Description: (§1) […] of clinical Escherichia coli (YT3, YT11, YT12, YT16, YT17, YT21, YT22, YT23, YT28, YT33) were picked, monocloned into LB medium, and cultured overnight, then were transferred into 2 mL fresh LB medium at 1:200, and added with a 6 mm PE-50 biological catheter that was sterilized by UV, and cultured in a 37° C. incubator for culture for 24 hours. The bacterial solution was replaced with 1 mL of LB medium daily, and the catheter was continuously cultured for 3 days. The prepared biofilm was washed 5 times with 1 mL of sterile normal saline, and then placed in a 1.5 mL EP tube.
Further, mice were used as test animals, and the prepared clinical Escherichia coli biofilm was implanted into the mouse urethra to construct a mouse chronic urinary tract infection model for conducting an in vivo clinical Escherichia coli clearance test was performed: a 6-mm PE-50 biological catheter of a clinical Escherichia coli biofilm formed by culture for 3 days was implanted into the urethra of a 5-week-old Kunming female mouse (about 20 g). After 48 hours, mice were divided into 2 groups of 5 mice each, which were the ampicillin group and the ampicillin+succinic acid group. […] 24 hours after the last injection, the catheter tube was taken into normal saline to suspend the biofilm bacteria in the ultrasound, and gradient dilution and plate counting were performed to calculate the bacterial survival rate on the catheter biofilm. The calculation formula is the number of viable bacteria in the injection substance group/number of viable bacteria in the control group×100%.

[4] = test system: clinical Escherichia coli biofilm; experiment: In vitro bactericidal assay of biofilm; format: cell-based; settings: catheter biofilm, 6 hours; succinic acid 580 mg/kg; ampicillin 2000 mg/kg for YT16, 500 mg/kg for YT28
Description: as §1
The assay was divided into 4 groups: normal saline control group, succinic acid group, ampicillin group, ampicillin+succinic acid group, and the catheters were treated in a shaker at 37° C. and 200 rpm. A dosage of succinic acid was 580 mg/kg, and a dosage of ampicillin was 2000 mg/kg for YT16, and 500 mg/kg for YT28. After 6 hours, ultrasonic cleaning was conducted for 15 minutes, the biofilm on the catheter was eluted and thoroughly mixed, and after gradient dilution, spot plate counting was performed. The formula for calculating the bacterial survival rate is: number of viable bacteria in each group/number of viable bacteria in the control group×100%.

[5] = test system: clinical Escherichia coli YT16 and YT28; settings: 6 hours (FIG. 9)
Description: The cultured bacteria were washed and resuspended in normal saline, OD600 value was adjusted to 1.0, and 1 mL of bacterial cells were taken for ultrasonication, and after centrifugation, the supernatant was taken to determine the antibiotic content. The ampicillin ELISA rapid diagnostic kit (purchased from Shenzhen Lvshiyuan Biotechnology Co., Ltd., with a detection range of 2 to 1000 g/mL) was used for detection and the specific steps are as follows: 50 μL of sample (or standard) and 50 μL of antibody were added into a 96-well plate, mixed gently, and incubated at 25° C. for 30 minutes, and the plate was washed 4 to 5 times; 100 μL of enzyme standard was added, mixed gently, and incubated away from light at 25° C. for 30 minutes, and the plate was washed 4 to 5 times; 50 μL of substrates A and B was added respectively, mixed gently, and incubated away from light at 25° C. for 15 minutes; and finally, a stop solution was added to stop the reaction, and an enzyme-labeled instrument was set to measure the absorbance of the reaction product at 450 nm. A standard curve was drawn, with the percent absorbance of the standard as an ordinate and semi-log of the concentration of the ampicillin standard (ng/mL) as the abscissa. AMP actual concentration=sample detection concentration xdilution multiple.

[6] = YT16, 10 mg/mL ampicillin + 1.25 mM succinic acid, 4 hours (FIG. 3)
[7] = YT16, 10 mg/mL ampicillin + 20 mM succinic acid, 4 hours (FIG. 3)
[8] = YT28, 10 mg/mL ampicillin + 1.25 mM succinic acid, 4 hours (FIG. 3)
[9] = YT28, 10 mg/mL ampicillin + 20 mM succinic acid, 4 hours (FIG. 3)

Question: What does the source list for `O=C(O)CCC(=O)O` [succinic acid]?
Answer: increase of proton motive force of the bacteria ([1]; YT16, succinic acid added vs control without): 1.2 times; increase of proton motive force of the bacteria ([1]; YT28, succinic acid added vs control without): 1.45 times; survival rate ([2]; YT16, 2.5 mg/mL ampicillin after adding 20 mM succinic acid, 4 hours): 30.06%; survival rate ([2]; YT16, 5 mg/mL ampicillin after adding 20 mM succinic acid, 4 hours): 2.06%; bacterial survival rate [2, 6]: 69.23%; bactericidal efficiency [2, 6]: 1.07 times; bacterial survival rate [2, 7]: 1.19%; bactericidal efficiency [2, 7]: 61 times; survival rate ([2]; YT16, 10 mg/mL ampicillin after adding 20 mM succinic acid, 4 hours (FIG. 1)): 0.41%; survival rate ([2]; YT16, 10 mg/mL ampicillin and 20 mM succinic acid, 1 hour (FIG. 2)): 71.54%; survival rate ([2]; YT16, 10 mg/mL ampicillin and 20 mM succinic acid, 4 hours (FIG. 2)): 0.78%; survival rate ([2]; YT16, 10 mg/mL ampicillin and 20 mM succinic acid, 7 hours (FIG. 2)): 0.01%; increase of sensitivity to penicillin G sodium salt ([2]; YT16, 20 mM succinic acid + 0.5 mg/mL penicillin G sodium salt, 4 hours): 4.96 times; increase of sensitivity to penicillin G sodium salt ([2]; YT16, 20 mM succinic acid + 0.75 mg/mL penicillin G sodium salt, 4 hours): 5.13 times; increase of sensitivity to carbenicillin ([2]; YT16, 20 mM succinic acid + 1.25 mg/mL carbenicillin, 4 hours): 1.99 times; increase of sensitivity to carbenicillin ([2]; YT16, 20 mM succinic acid + 2.5 mg/mL carbenicillin, 4 hours): 11.65 times; increase of sensitivity to amoxicillin ([2]; YT16, 20 mM succinic acid + 5 mg/mL amoxicillin, 4 hours): 15.86 times; increase of sensitivity to amoxicillin ([2]; YT16, 20 mM succinic acid + 7.5 mg/mL amoxicillin, 4 hours): 3.37 times; bactericidal efficiency ([2]; YT16, 20 mM succinic acid + 10 mg/mL ampicillin vs ampicillin only, at 1 hour (FIG. 2)): 1.33 time; bactericidal efficiency ([2]; YT16, 20 mM succinic acid + 10 mg/mL ampicillin vs ampicillin only, at 4 hours (FIG. 2)): 60.66 times; bactericidal efficiency ([2]; YT16, 20 mM succinic acid + 10 mg/mL ampicillin vs ampicillin only, at 7 hours (FIG. 2)): 1744.19 times; bactericidal efficiency increase ([2]; YT16, 20 mM succinic acid added to 2.5 mg/mL ampicillin, 4 hours, vs ampicillin alone): more than 2 times; bactericidal efficiency increase ([2]; YT16, 20 mM succinic acid added to 5 mg/mL ampicillin, 4 hours, vs ampicillin alone): 16.75 times; bactericidal efficiency increase ([2]; YT16, 20 mM succinic acid added to 10 mg/mL ampicillin, 4 hours, vs ampicillin alone (FIG. 1)): 62.25 times; bactericidal efficiency increase ([2]; YT16, 20 mM succinic acid added to 20 mg/mL ampicillin, 4 hours, vs ampicillin alone): 105.96 times; enhancement of sensitivity to different kinds of antibiotics ([2]; YT16, 20 mM succinic acid with gentamicin, ciprofloxacin, tetracycline, erythromycin, clindamycin or rifampin, 4 hours (FIG. 6)): about 2 times; survival rate ([2]; YT16, 20 mg/mL ampicillin after adding 20 mM succinic acid, 4 hours): 0.12%; survival rate ([2]; YT28, 2.5 mg/mL ampicillin after adding 20 mM succinic acid, 4 hours): 41.62%; survival rate ([2]; YT28, 5 mg/mL ampicillin after adding 20 mM succinic acid, 4 hours): 12.71%; bacterial survival rate [2, 8]: 80.31%; bactericidal efficiency [2, 8]: 1.07 times; bacterial survival rate [2, 9]: 4.24%; bactericidal efficiency [2, 9]: 20 times; survival rate ([2]; YT28, 10 mg/mL ampicillin after adding 20 mM succinic acid, 4 hours (FIG. 1)): 1.7%; survival rate ([2]; YT28, 10 mg/mL ampicillin and 20 mM succinic acid, 1 hour (FIG. 2)): 66.81%; survival rate ([2]; YT28, 10 mg/mL ampicillin and 20 mM succinic acid, 4 hours (FIG. 2)): 1.25%; survival rate ([2]; YT28, 10 mg/mL ampicillin and 20 mM succinic acid, 7 hours (FIG. 2)): 0.18%; increase of sensitivity to penicillin G sodium salt ([2]; YT28, 20 mM succinic acid + 0.5 mg/mL penicillin G sodium salt, 4 hours): 2.66 times; increase of sensitivity to penicillin G sodium salt ([2]; YT28, 20 mM succinic acid + 0.75 mg/mL penicillin G sodium salt, 4 hours): 9.34 times; increase of sensitivity to carbenicillin ([2]; YT28, 20 mM succinic acid + 1.25 mg/mL carbenicillin, 4 hours): 1.8 times; increase of sensitivity to carbenicillin ([2]; YT28, 20 mM succinic acid + 2.5 mg/mL carbenicillin, 4 hours): 15.85 times; increase of sensitivity to amoxicillin ([2]; YT28, 20 mM succinic acid + 5 mg/mL amoxicillin, 4 hours): 13.94 times; increase of sensitivity to amoxicillin ([2]; YT28, 20 mM succinic acid + 7.5 mg/mL amoxicillin, 4 hours): 31.85 times; bactericidal efficiency ([2]; YT28, 20 mM succinic acid + 10 mg/mL ampicillin vs ampicillin only, at 1 hour (FIG. 2)): 1.44 time; bactericidal efficiency ([2]; YT28, 20 mM succinic acid + 10 mg/mL ampicillin vs ampicillin only, at 4 hours (FIG. 2)): 21.45 times; bactericidal efficiency ([2]; YT28, 20 mM succinic acid + 10 mg/mL ampicillin vs ampicillin only, at 7 hours (FIG. 2)): 78.34 times; bactericidal efficiency increase ([2]; YT28, 20 mM succinic acid added to 2.5 mg/mL ampicillin, 4 hours, vs ampicillin alone): more than 1.65 times; bactericidal efficiency increase ([2]; YT28, 20 mM succinic acid added to 5 mg/mL ampicillin, 4 hours, vs ampicillin alone): 4.42 times; bactericidal efficiency increase ([2]; YT28, 20 mM succinic acid added to 10 mg/mL ampicillin, 4 hours, vs ampicillin alone (FIG. 1)): 21.06 times; bactericidal efficiency increase ([2]; YT28, 20 mM succinic acid added to 20 mg/mL ampicillin, 4 hours, vs ampicillin alone): 34.48 times; survival rate ([2]; YT28, 20 mg/mL ampicillin after adding 20 mM succinic acid, 4 hours): 0.79%; bactericidal efficiency increase on catheter biofilm ([3]; i.p. 590 mg/kg succinic acid + ampicillin (2000 or 500 mg/kg) twice a day for 3 days vs ampicillin group, 1st of the 9 strains (YT3 by order of b93)): 14 times; bactericidal efficiency increase on catheter biofilm ([3]; i.p. 590 mg/kg succinic acid + ampicillin twice a day for 3 days vs ampicillin group, 2nd of the 9 strains (YT11 by order of b93)): 5 times; bactericidal efficiency increase on catheter biofilm ([3]; i.p. 590 mg/kg succinic acid + ampicillin twice a day for 3 days vs ampicillin group, 3rd of the 9 strains (YT12 by order of b93)): 53 times; bactericidal efficiency increase on catheter biofilm ([3]; i.p. 590 mg/kg succinic acid + ampicillin twice a day for 3 days vs ampicillin group, 4th of the 9 strains (YT16 by order of b93)): 30 times; bactericidal efficiency increase on catheter biofilm ([3]; i.p. 590 mg/kg succinic acid + ampicillin twice a day for 3 days vs ampicillin group, 5th of the 9 strains (YT17 by order of b93)): 5 times; bactericidal efficiency increase on catheter biofilm ([3]; i.p. 590 mg/kg succinic acid + ampicillin twice a day for 3 days vs ampicillin group, 6th of the 9 strains (YT21 by order of b93)): 9 times; bactericidal efficiency increase on catheter biofilm ([3]; i.p. 590 mg/kg succinic acid + ampicillin twice a day for 3 days vs ampicillin group, 7th of the 9 strains (YT22 by order of b93)): 38 times; bactericidal efficiency increase on catheter biofilm ([3]; i.p. 590 mg/kg succinic acid + ampicillin twice a day for 3 days vs ampicillin group, 8th of the 9 strains (YT23 by order of b93)): 17 times; bactericidal efficiency increase on catheter biofilm ([3]; i.p. 590 mg/kg succinic acid + ampicillin twice a day for 3 days vs ampicillin group, 9th of the 9 strains (YT28 by order of b93)): 53 times; clearance of clinical Escherichia coli on the biofilms, used alone [4]: cannot clear; increase of the number of antibiotics (ampicillin) in the bacteria ([5]; YT16, ampicillin and succinic acid vs only ampicillin): 5.97 times; increase of the number of antibiotics (ampicillin) in the bacteria ([5]; YT28, ampicillin and succinic acid vs only ampicillin): 7.99 times
